Experiments:
Format in all cases: cell-based, Human
U87 cells [1] = test: Annexin V–FITC/PI apoptosis assay of U87 cells; details: for Effect on apoptosis (Annexin V+ cells), compound alone: bepridil 25 μM 6–48 hr, CB‐DMB 3.5 μM 6–48 hr, KB‐R7943 25 μM 20 hr, BAPTA‐AM 10 μM 18 hr, CC‐930 10 μM, PD169316 10 μM
Experimental: (§1) U87 cells were seeded in six‐well plates (Corning, Corning, NY, USA) with 1 × 10^6 cells per well and treated with NCX blockers, BAPTA‐AM, or MAPK inhibitors. Drug treatment was performed by the person who is blinded to the experimental groups. After treatment, cells were harvested in 15‐ml tubes and washed with cold sterile PBS. After being centrifuged, cells were fixed with 70% ethanol […] at 4°C for at least 1 hr. For propidium iodide (PI) staining, cells were washed one time with PBS and then were treated with ribonuclease A (RNase; 100 μg·ml^−1) for 30 min. PI (10 μg·ml^−1) was added, and stained cells were kept in the dark at 4°C until analysis. The number of cells analysed for each sample was 10,000 events. FACS analysis was performed using the Coulter CytoFlexS flow cytometer (Beckman Coulter, CA, USA), and the percentage of cells in the G0/G1, S, and G2/M phases was determined using cell cycle analysis software, ModFit LT 5.0 (Verity Software House, Topsham, ME, USA). For the apoptosis assay, cells were harvested and washed twice with cold PBS and resuspended at a density of 1 × 10^6 cells·ml^−1 in 100 μl of binding buffer containing 5 μl of Annexin V–FITC and 5 μl of PI working solution (100 μg·ml^−1). After incubation at room temperature for 15 min in the dark, 400 μl of binding buffer was added to each sample. Apoptosis was analysed by Coulter CytoFlexS flow cytometer (Beckman Coulter) for at least 10,000 events, and data were analysed with the software, CyExpert 2.0 (Beckman Coulter).

[Na^+]i in U87 cells = Na+ imaging (ANG-2 AM) of U87 cells; details: bepridil 50 μM, KB‐R7943 50 μM, CB‐DMB 4 μM
Experimental: (§2) Cells were cultured in 96‐well plates at 8 × 10^3 per well and loaded with the cell membrane‐permeable Ca^2+ dye Fluo‐4 AM (5 μM) in 100‐μl HEPES‐buffered solution for 50 min. The solution contained (mM): 135 NaCl, 3 KCl, 2 CaCl2, 1 MgCl2, 10 glucose, and 10 HEPES, supplemented with 1% FBS at pH 7.4. To prepare the Ca^2+‐free solution, 2‐mM CaCl2 was replaced with 1‐mM EGTA in the HEPES‐buffered solution. The 96‐well plate containing the Fluo‐4 AM‐loaded cells was mounted in a Leica TCS SP8 confocal system (Leica Microsystems, Wetzlar, Germany). The confocal microscope armed with 488‐nm laser light was employed to excite the dynamic fluorescent signals in time and synchronously, while test regents were added to cells. To do Na^+ imaging, Fluo‐4 AM was replaced with the cell membrane‐permeable Na^+ dye Asante NaTrium Green‐2 AM (ANG‐2 AM) at 5 μM, which was excited by 514‐nm laser light. Visual inspection and fluorescent imaging were carried out at room temperature. The imaging data were analysed with the software https://leica-las-af-lite.software.informer.com/ 2.5 (Leica). The imaging traces shown are representative of at least three separate experiments; 12–18 cells were imaged in each experiment.

U251 cells = test: Cell viability assay (Cell Counting Kit-8), U251; details: 72 hr, CCK-8; mean ± SEM
Experimental: (§3) Cell viability was determined by using a Cell Counting Kit‐8 (Dojindo, Japan). Briefly, cells were harvested from flasks and plated in 96‐well cell culture plates at 5 × 10^3 per well and cultured overnight. […] Control cells were treated with cell culture medium and measured at the same time point as treatment groups. CCK‐8 solution (10 μl) was added to each well of the 96‐well plates, and the cultures were incubated for 30 min at 37°C. Absorbance at 450 nm was measured using an automatic microplate reader (Molecular Devices, San Jose, CA, USA).
(§4) Figure 2 Effect of the Na^+/Ca^2+ exchanger (NCX) blockers on viability of human glioblastoma cell lines. (a, b) Viability of adult glioblastoma cell lines (U87 and U251) after exposure to NCX blockers bepridil, KB‐R7943, SEA0400, SN‐6, or YM244769 at 0–100 μM for 72 hr. n = 5 independent tests per group. (c) Viability of paediatric glioblastoma cell line SF188 after 72‐hr incubation with the same NCX blockers at 0–100 μM. n = 5 independent tests per group. (d) For U87, U251, and SF188 cell lines, concentration of the NCX blockers required to produce half maximal inhibition (IC50: μM, mean ± SEM) of cell viability.

[Ca^2+]i in U87 cells = Ca2+ imaging (Fluo-4 AM) of U87 cells
Experimental: as §2

U87 cells [2] = test: Cell cycle assay (PI staining, flow cytometry) of U87 cells; details: bepridil 25 μM 6–24 hr, CB‐DMB 3.5 μM 6–24 hr, KB‐R7943 25 μM 18 hr, BAPTA‐AM 10 μM 18 hr, CC‐930 10 μM, PD169316 10 μM 18 hr
Experimental: as §1

SF188 cells = test: Cell viability assay (Cell Counting Kit-8), SF188; details: 72 hr, CCK-8; mean ± SEM
Experimental: as §3, §4

U87 cells [3] = test: Cell viability assay (Cell Counting Kit-8), U87; details: 72 hr, CCK-8; mean ± SEM
Experimental: as §3, §4

[4] = Cell viability assay (Cell Counting Kit-8), ranges given for U87 and U251 together; details: human, U87 and U251 cells, read-out: Cell viability, % of control level
Experimental: Cell viability was determined by using a Cell Counting Kit‐8 (Dojindo, Japan). Briefly, cells were harvested from flasks and plated in 96‐well cell culture plates at 5 × 10^3 per well and cultured overnight. Cells were treated with test reagents for 72 hr. Control cells were treated with cell culture medium and measured at the same time point as treatment groups. CCK‐8 solution (10 μl) was added to each well of the 96‐well plates, and the cultures were incubated for 30 min at 37°C. Absorbance at 450 nm was measured using an automatic microplate reader (Molecular Devices, San Jose, CA, USA).

reverse NCX = test: Whole-cell patch-clamp recording of reverse-mode NCX currents in U87 cells; details: reverse NCX current measured at +50 mV, mean ± SEM, n = 4, read-out: IC50, blocking reverse NCX (currents)
Experimental: (§5) Whole‐cell patch‐clamp recording was performed using a Multiclamp 700B amplifier (Molecular Devices, Foster City, CA, USA) at room temperature. Voltage protocols were provided and current recorded via a DigiData‐1550B interface (Molecular Devices) controlled by pClamp 10 Software (Molecular Devices, RRID:SCR_011323). […] Internal solution consisted of (in mM): 120 CsCl, 20 NaCl, 2 MgCl2, 13 CaCl2, 2 Na2ATP, 20 BAPTA, and 10 HEPES at a pH 7.2. […] Series resistance was compensated by 75–85%. Linear leak and residual capacitance currents were subtracted online using a P/4 protocol of the pClamp 10. For the recording of the membrane currents related to the NCX, cells were held at −50 mV and depolarized to +60 mV, and then a voltage ramp starting from +60 to −120 mV was applied for 1,000 ms before returning back to −50 mV. The reverse and forward NCX currents were measured at +50 and −110 mV holding potentials respectively (Molinaro et al., 2008; Rahman, Inman, Kiss, & Janssen, 2012; Song, Chen, & Yu, 2014). Data were filtered at 3 KHz and digitized at sampling rates of 20 KHz. For drug application, cells were perfused with a VC‐6 Six Channel Perfusion Valve Control Systems (Warner Instruments, Greenwich, CT, USA) connected to a gravity‐fed perfusion systems.
(§6) Data are expressed as mean ± SEM and analysed by Prism 7 software, La Jolla, CA (GraphPad Prism, RRID:SCR_002798). The data and statistical analysis comply with the recommendations of the British Journal of Pharmacology on experimental design and analysis in pharmacology. Concentrations of the NCX blockers (IC50) exerting half‐maximal inhibition of NCX currents were obtained by fitting the concentration–response with the equation: I/I0*100%=Bottom+Top−Bottom/1+10^((^Log^IC50−C)*n) , where I 0 and I are current amplitudes measured in control and in the presence of NCX blockers, C is the logarithm of concentration, and n is the Hill coefficient. The statistical difference between two independent groups was analysed by Student's parametric unpaired t test. And the original data of more than two groups were assessed by the parametric one‐way ANOVA followed by a Tukey's post hoc test. The data for cell viability and Western blot were usually normalized to the control group, and were thus analysed by the non‐parametric Kruskal–Wallis test followed by a Dunn's post hoc test. Differences were considered to be significant when P < .05. Post hoc tests were conducted when the F value achieved the necessary level (P < .05) and there was no significant variance inhomogeneity.
(§7) We characterized the membrane currents associated with NCX activity in glioblastoma cells using whole‐cell patch‐clamp recording. […] The NCX current in its reverse mode (Ca^2+ entry) was measured at +50, and the forward‐mode current (Ca^2+ exit) was measured at −110 mV. The Ni^2+ (10 mM) was employed to inhibit and identify the NCX currents in its either reverse or forward mode as previously reported (Maack, Ganesan, Sidor, & O'Rourke, 2005).

forward NCX = test: Whole-cell patch-clamp recording of forward-mode NCX currents in U87 cells; details: for IC50: forward NCX current measured at −110 mV, mean ± SEM, n = 4, read-out: IC50, blocking forward NCX (currents); for Inhibition of the forward NCX currents (in words): −110 mV, SEA0400 0.1–100 μM, SN‐6 and YM244769 0.1–30 μM
Experimental: as §5, §6, §7

Compound	IC50 (U251 cells) [µM]	IC50 (U87 cells [3]) [µM]	IC50 (reverse NCX) [µM]	IC50 (forward NCX) [µM]	Effect on apoptosis (Annexin V+ cells), compound alone (U87 cells [1])	Effect on intracellular Na+ [Na+]i level ([Na^+]i in U87 cells)	Effect on intracellular Ca2+ pool and ER Ca2+ transporting ([Ca^2+]i in U87 cells; Ca2+‐free solution, followed by 5‐μM thapsigargin)	Effect on [Ca2+]i level ([Ca^2+]i in U87 cells; solution containing 2‐mM Ca2+, bepridil or KB‐R7943 25 or 50 μM, CB‐DMB 2 and 4 μM)	Effect on cell cycle distribution, compound alone (U87 cells [2])	IC50 (SF188 cells) [µM]	Effect on bepridil-induced apoptosis (U87 cells [1]; bepridil 25 μM 24 hr, pretreatment BAPTA‐AM 10 μM, CC‐930 10 μM or PD169316 10 μM)	viability at 72 h, 10 µM [4] [%]	viability at 72 h, 20 µM [4] [%]	viability at 72 h, 50 µM [4] [%]	Inhibition of the forward NCX currents (in words) (forward NCX)
O[C@H]1CC[C@H](Nc2ncc3nc(Nc4c(F)cc(F)cc4F)n([C@H]4CCOC4)c3n2)CC1 [CC‐930, tanzisertib]	–	–	–	–	did not activate apoptosis	–	–	–	–	–	attenuated	–	–	–	–
CCOc1ccc(Oc2ccc(OCc3cc(F)ccc3F)cc2)c(N)c1 [SEA0400, 2‐[4‐[(2,5‐difluorophenyl)methoxy]phenoxy]‐5‐ethoxyaniline]	–	–	3.6 ± 1.2	> 30	–	–	–	–	–	–	–	93 to 106	88 to 103	72 to 92	without inhibition of the forward NCX currents
CCOC(=O)C1CSC(Cc2ccc(OCc3ccc([N+](=O)[O-])cc3)cc2)N1 (stereo not shown) [SN‐6, 2‐[[4‐[(4‐nitrophenyl)methoxy]phenyl]methyl]‐4‐thiazolidinecarboxylic acid ethyl ester]	–	–	3.2 ± 1.2	> 30	–	–	–	–	–	–	–	87 to 97	86 to 99	74 to 104	without inhibition of the forward NCX currents

Continued, in another order:

IC50 (U251 cells) [µM]	IC50 (U87 cells [3]) [µM]	IC50 (reverse NCX) [µM]	IC50 (forward NCX) [µM]	Compound	Effect on apoptosis (Annexin V+ cells), compound alone (U87 cells [1])	Effect on intracellular Na+ [Na+]i level ([Na^+]i in U87 cells)	Effect on intracellular Ca2+ pool and ER Ca2+ transporting ([Ca^2+]i in U87 cells; Ca2+‐free solution, followed by 5‐μM thapsigargin)	Effect on [Ca2+]i level ([Ca^2+]i in U87 cells; solution containing 2‐mM Ca2+, bepridil or KB‐R7943 25 or 50 μM, CB‐DMB 2 and 4 μM)	Effect on cell cycle distribution, compound alone (U87 cells [2])	IC50 (SF188 cells) [µM]	Effect on bepridil-induced apoptosis (U87 cells [1]; bepridil 25 μM 24 hr, pretreatment BAPTA‐AM 10 μM, CC‐930 10 μM or PD169316 10 μM)	viability at 72 h, 10 µM [4] [%]	viability at 72 h, 20 µM [4] [%]	viability at 72 h, 50 µM [4] [%]	Inhibition of the forward NCX currents (in words) (forward NCX)
2.7 ± 0.1	3.1 ± 0.6	–	–	Cc1ccc(CNC(N)=NC(=O)c2nc(Cl)c(NCc3ccc(Cl)cc3)nc2N)c(C)c1 [CB‐DMB, [N‐(4‐chlorobenzyl)]2,4‐dimethylbenzamyl]	activated apoptosis in time‐dependent manner	did not change	did not affect the ER Ca^2+ transporters	elevated [Ca^2+]i	induced G0/G1 arrest	2.6 ± 0.1	–	–	–	–	–
–	–	4.5 ± 1.1	> 30	Cl.Cl.Nc1cccc(CNC(=O)c2ccc(Oc3ccc(OCc4cccc(F)c4)cc3)nc2)c1 [YM244769, N‐[(3‐aminophenyl)methyl]‐6‐[4‐[(3‐fluorophenyl)methoxy]phenoxy]‐3‐pyridinecarboxamide dihydrochloride]	–	–	–	–	–	–	–	87 to 100	84 to 96	71 to 76	without inhibition of the forward NCX currents
